In patent US12116358B2, “Substituted indoles and methods of use thereof” (EPIZYME, INC., priority 2018, dated 2024):
pIC50: −log10 of the molar value. Read-outs that look alike come from different tables or passages of the source.

How the values were obtained:
SETD2(1434-1711) = target: T1, SETD2(1434-1711) (Homo sapiens, UniProt Q9BYW2); experiment: SETD2 (1434-1711) assay; assay type: biochemical; conditions: read-out: SETD2 (1434-1711)
T1 construct: SETD2 (1434-1711) Assay; catalogue N/A
T1 sequence (Q9BYW2 1434-1711): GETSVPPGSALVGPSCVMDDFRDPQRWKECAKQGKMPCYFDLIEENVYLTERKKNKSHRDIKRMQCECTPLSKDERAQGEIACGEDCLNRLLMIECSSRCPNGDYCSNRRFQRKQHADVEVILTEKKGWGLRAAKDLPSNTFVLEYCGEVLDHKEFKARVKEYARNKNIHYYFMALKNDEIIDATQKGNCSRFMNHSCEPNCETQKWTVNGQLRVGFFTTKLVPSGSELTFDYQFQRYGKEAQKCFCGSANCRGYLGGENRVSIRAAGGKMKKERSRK

H3K36me3 in A549 cells = experiment: In-Cell Western (ICW) assay of SETD2 inhibitors (A549 assay); assay type: cell-based, human; conditions: A549 cells, read-out: SETD2 A549
How it was run: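 A549 cells seeded at 4,000/well onto compound and incubated 3 days at 37° C. Methanol-fixed cells stained overnight at 4° C with anti-H3K36me3 (1:1000), then IRDye 800CW secondary with DRAQ5 DNA counterstain. Plates read by Licor imaging at 700 and 800 channels.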

## Cc1ccc(F)c2cc(C(=O)Nc3cccc(-c4ncn[nH]4)c3)[nH]c12 [compound 304]
SETD2(1434-1711)
  pIC50: 6.52
H3K36me3 in A549 cells
  pIC50: 5.92

## CC(=O)N(C)C1CCCN(C2COCC(NC(=O)c3cc4c(F)ccc(C)c4[nH]3)C2)C1 (stereo not drawn) [compound 305]
SETD2(1434-1711)
  pIC50: 6.30
H3K36me3 in A549 cells; Homo sapiens
  pIC50: 5.92

## Cc1ccc(F)c2cc(C(=O)Nc3cccc(N4CCOCC4C4CC4)c3)[nH]c12 (stereo not drawn) [compound 306]
SETD2(1434-1711)
  pIC50: 6.40
H3K36me3 in A549 cells; Homo sapiens
  pIC50: 5.92

## Cc1ccc(F)c2cc(C(=O)Nc3cccc(C4COCCN4)c3)[nH]c12 (stereo not drawn) [compound 307]
SETD2(1434-1711)
  pIC50: 6.70
H3K36me3 in A549 cells; Homo sapiens
  pIC50: 5.92

## Cc1ccc(F)c2cc(C(=O)Nc3cccc(N4CC[C@@H](N(C)C)C[C@H]4C)c3)[nH]c12 [compound 308]
SETD2(1434-1711)
  pIC50: 7.00
H3K36me3 in A549 cells; Homo sapiens
  pIC50: 5.89

## Cc1cc(Cn2ccnc2)cnc1C(NC(=O)c1cc2cccc(C)c2[nH]1)C1CC1 (stereo not drawn) [compound 309]
SETD2(1434-1711)
  pIC50: 6.70
H3K36me3 in A549 cells; Homo sapiens
  pIC50: 5.89

## Cc1ccc(F)c2cc(C(=O)Nc3cccc(N4CCCC(N)C4)c3)[nH]c12 (stereo not drawn) [compound 310]
SETD2(1434-1711)
  pIC50: 7.30
H3K36me3 in A549 cells; Homo sapiens
  pIC50: 5.89

## Cc1ccc(F)c2cc(C(=O)Nc3cc(C(F)F)cc(N4CCC(N(C)C)CC4)c3)[nH]c12 [compound 311]
SETD2(1434-1711)
  pIC50: 7.52
H3K36me3 in A549 cells; Homo sapiens
  pIC50: 5.89

## Cc1ccc(F)c2cc(C(=O)Nc3cccc(N4CCN(c5ccccc5)CC4)c3)[nH]c12 [compound 312]
SETD2(1434-1711)
  pIC50: 6.10
H3K36me3 in A549 cells; Homo sapiens
  pIC50: 5.89

## Cc1ccc(F)c2cc(C(=O)Nc3cc(F)cc([C@H]4CC[C@H](N(C)C)CC4)c3)[nH]c12 [compound 313]
SETD2(1434-1711)
  pIC50: 7.52
H3K36me3 in A549 cells; Homo sapiens
  pIC50: 5.89

## Cc1ccc(F)c2cc(C(=O)Nc3cccc(NC(=O)C4CCCN4)c3)[nH]c12 (stereo not drawn) [compound 314]
SETD2(1434-1711)
  pIC50: 7.40
H3K36me3 in A549 cells; Homo sapiens
  pIC50: 5.89

## Cc1ccc(F)c2cc(C(=O)Nc3cccc(C(C)(C)O)c3)[nH]c12 [compound 315]
SETD2(1434-1711)
  pIC50: 6.22
H3K36me3 in A549 cells; Homo sapiens
  pIC50: 5.85

## Cc1ccc(F)c2cc(C(=O)Nc3cccc(-c4ncccn4)c3)[nH]c12 [compound 316]
SETD2(1434-1711)
  pIC50: 7.00
H3K36me3 in A549 cells; Homo sapiens
  pIC50: 5.85

## Cc1cn(Cc2cnc(C(NC(=O)c3cc4c(F)ccc(C)c4[nH]3)C3CC3)c(C)c2)c(C)n1 (stereo not drawn) [compound 317]
SETD2(1434-1711)
  pIC50: 7.00
H3K36me3 in A549 cells; Homo sapiens
  pIC50: 5.85

## Cc1ccc(F)c2cc(C(=O)Nc3cccc(N4CCN(C)CC4C)c3)[nH]c12 (stereo not drawn) [compound 318]
SETD2(1434-1711)
  pIC50: 6.70
H3K36me3 in A549 cells; Homo sapiens
  pIC50: 5.85

## Cc1ccc(F)c2cc(C(=O)Nc3cccc(-c4nnc(N)o4)c3)[nH]c12 [compound 319]
SETD2(1434-1711)
  pIC50: 7.00
H3K36me3 in A549 cells; Homo sapiens
  pIC50: 5.85

## Cc1c(NC(=O)c2cc3c(F)ccc(C)c3[nH]2)cccc1N1CCN(C)CC1 [compound 320]
SETD2(1434-1711)
  pIC50: 6.70
H3K36me3 in A549 cells; Homo sapiens
  pIC50: 5.85

## Cc1ccc(F)c2cc(C(=O)Nc3cccc(N4CCNCC4=O)c3)[nH]c12 [compound 321]
SETD2(1434-1711)
  pIC50: 6.70
H3K36me3 in A549 cells; Homo sapiens
  pIC50: 5.82

## Cc1ccc(F)c2cc(C(=O)Nc3cccc(-c4ccn[nH]4)c3)[nH]c12 [compound 322]
SETD2(1434-1711)
  pIC50: 6.30
H3K36me3 in A549 cells; Homo sapiens
  pIC50: 5.82

## Cc1ccc(F)c2cc(C(=O)Nc3cccc(OCCN(C)C)c3)[nH]c12 [compound 323]
SETD2(1434-1711)
  pIC50: 7.15
H3K36me3 in A549 cells; Homo sapiens
  pIC50: 5.82

## Cc1ccc(F)c2cc(C(=O)Nc3cccc([C@H]4CC[C@@H](N(C)C)C4)c3)[nH]c12 [compound 324]
SETD2(1434-1711)
  pIC50: 7.30
H3K36me3 in A549 cells; Homo sapiens
  pIC50: 5.82

## Cc1ccc(F)c2cc(C(=O)Nc3cccc(N(C)C4CCNCC4)c3)[nH]c12 [compound 325]
SETD2(1434-1711)
  pIC50: 7.15
H3K36me3 in A549 cells; Homo sapiens
  pIC50: 5.82

## CNc1cccc(-c2cccc(NC(=O)c3cc4c(F)ccc(C)c4[nH]3)c2)n1 [compound 326]
SETD2(1434-1711)
  pIC50: 6.70
H3K36me3 in A549 cells; Homo sapiens
  pIC50: 5.80

## Cc1ccc(F)c2cc(C(=O)NC3C(=O)NCCc4ccccc43)[nH]c12 (stereo not drawn) [compound 327]
SETD2(1434-1711)
  pIC50: 6.30
H3K36me3 in A549 cells
  pIC50: 5.80

## Cc1ccc(F)c2cc(C(=O)Nc3cccc(N4CCn5cnnc5C4)c3)[nH]c12 [compound 328]
SETD2(1434-1711)
  pIC50: 7.40
H3K36me3 in A549 cells; Homo sapiens
  pIC50: 5.80

## Cc1ccc(F)c2cc(C(=O)Nc3cccc(C(=O)N(C)C)c3)[nH]c12 [compound 329]
SETD2(1434-1711)
  pIC50: 6.22
H3K36me3 in A549 cells; Homo sapiens
  pIC50: 5.80

## Cc1ccc(F)c2cc(C(=O)Nc3cccc(NC4CCN(C)C4)c3)[nH]c12 (stereo not drawn) [compound 330]
SETD2(1434-1711)
  pIC50: 7.15
H3K36me3 in A549 cells; Homo sapiens
  pIC50: 5.80
